According to patent US6410587B1, “Compounds and therapies for the prevention of vascular and non-vascular pathologies” (NeoRx Corporation, priority 1997, dated 2002):

What was measured:
[1] = Serum lipid and lipoprotein profile of apoE knockout mice; format: in vivo, mouse
Procedure: The effect of each treatment on the lipid profile of each group of mice was determined by measuring the cholesterol and triglyceride. Blood from a terminal bleed was collected in a polypropylene tube, allowed to clot at room temperature for 2 hours and then spun (1,000×g; 5 minutes). The serum supernatant was aliquoted and stored at −20° C. until assayed. Total cholesterol and total triglycerides were determined for each mouse using the cholesterol oxidase and glycerol kinase UV end-point enzymatic methods respectively (Sigma Diagnostics).

[2] = Simvastatin for 16 weeks in patients with high cholesterol; format: in vivo, human; conditions: six time points
Procedure: Twenty six patients with high cholesterol were administered simnvastatin for 16 weeks. Blood was collected at six times points during the 16 weeks and analyzed for TGF-beta levels.

[3] = system: smooth muscle α-actin (SM-α-actin); experiment: SM-alpha-actin in vessel wall (quantitative immunofluorescence); format: in vivo, mouse; conditions: 87 days treatment
Procedure: (§1) SM-α-actin and osteopontin were measured by quantitative immunofluorescence microscopy using specific primary antibodies A-6125 (Sigma) and MBP111Bio (NIH Developmental Studies Hybridoma Bank), respectively.

TGF-beta = TGF-beta in vessel wall of apoE knockout mice (quantitative immunofluorescence); format: in vivo, mouse; conditions: 87 days treatment
Procedure: No. 08/478,936, filed Jun. 7, 1995, which is incorporated by reference herein. […] Sigma) and fixed in ice-cold acetone for 90 seconds, air-dried and stored at -20° C. until assayed. […] R&D Systems), see Mosedale et al., Histochem. Cytochem., 44, 1043 (1996), the disclosure of which is incorporated by reference herein. Active TGF-beta wag measured by quantitative immunofluorescence microscopy using the recombinant extracellular domain of the type II TGF-beta receptor […]) labeled with fluorescein.

osteopontin = experiment: Osteopontin in vessel wall (quantitative immunofluorescence); format: in vivo, mouse; conditions: 87 days treatment
Procedure: as §1

apoE knockout mice = experiment: Lipid lesion development in aortic sinus of apoE knockout mice (Oil Red O)
Procedure: To determine the efficacy of combination therapy, and to provide evidence for synergism between aspirin and fish oil, 8-week-old female apoE knockout mice were fed aspirin or fish oil, or both, to assess the cardioprotective effects of modulating different components of the TGF-beta pathway.
Group A mice (n=10) were sacrificed at day 0. Group B mice (n=10) were fed normal chow. […] Group D mice (n=10) were fed chow containing 33 mg/kg/day fish oil (200 μg Pulse cod liver oil/g food, Seven Seas Ltd., which contains 0.9 g eicosapentaenoic acid (EPA), and 0.3 g docosahexaenoic acid (DHA)) and 3 mg/kg/day aspirin dissolved in water. Group E mice (n=10) were fed chow containing 33 mg/kg/day fish oil. Group F mice (n=10) were fed chow containing Zocor (simvastatin; Zocor tablets, Merck, Sharpe & Dohme) at 400 μg/kg/day (2 μg/g food).
Groups B-F were fed these regimens for 87 days. All mice were weighed daily for the first week and weekly thereafter. Food and water consumption over a 24 hour period were measured daily for the first 7 days and weekly thereafter.
After 87 days, mice in groups B-F were fasted overnight and then sacrificed. Serum, heart, lungs and aorta samples were collected at the time of sacrifice. The heart, lungs and aorta were removed from each mouse and rinsed in PBS, dabbed dry on tissue and embedded in Cryo-M-bed embedding medium (Bright Instruments, Huntington, U.K.) before snap freezing in liquid nitrogen. Frozen sections (4 μm thickness) of the aortic sinus region were prepared from the heart/lung/aorta blocks according to the sectioning strategy of Paigen et al. (Arteriosclerosis, 10, 316 (1990)). Sections on 5% gelatin-coated slides were stained for neutral lipid by the Oil Red O technique and counter-stained with fast green (Grainger et al., Nature Med., 1, 1067 (1995)).
The development of lipid-filled vascular lesions was determined by the quantitation of oil red O staining for neutral lipid deposited in the aortic sinus region. The area of lipid accumulation was measured using a calibrated microscope eye-piece, such that lipid droplets<50 μm^2 were ignored and contiguous regions of lipid staining>500 μm in area were classified as lesions.

[4] = single measurement on pooled blood of the group

## CCC(C)(C)C(=O)O[C@H]1C[C@@H](C)C=C2C=C[C@H](C)[C@H](CC[C@@H]3C[C@@H](O)CC(=O)O3)[C@H]21 [Zocor, simvastatin]
[1]; serum, 87 days treatment
  Total cholesterol: 224 ± 29 mg/dL
  Total triglyceride: 266 ± 14 mg/dL
[1]; [4]
  HDL-cholesterol: 35 mg/dL
  LDL-cholesterol: 54 mg/dL
  VLDL-cholesterol: 158 mg/dL
[1]; three months
  change in LDL-cholesterol vs control mice: −41%
  change in VLDL-cholesterol vs control mice: −14%
  change in total plasma cholesterol vs control mice: −27%
  reduction in total plasma triglyceride concentration: −12%
[2]
  effect on TGF-beta levels: no effect
[3]
  SMα Actin: 114 ± 19
TGF-beta
  Active + Latent TGF-beta in Vessel Wall: 44 ± 5
  Active TGF-beta in Vessel Wall: 20 ± 3
osteopontin
  Osteopontin: 73 ± 8
apoE knockout mice; 3 month treatment
  change in lesion development / lesion formation vs untreated mice: −7%
apoE knockout mice; 87 days treatment
  Number of Lesions: 8.1 ± 0.4
apoE knockout mice; 87 days treatment, per mouse, n=10
  Lesion Area (μm^2 staining): 25,777 ± 1368 μm^2
